Tested on: human BCL11A erythroid enhancer
Assay: Tiled pooled CRISPR-Cas9 screen for in situ functional mapping of the human BCL11A erythroid enhancer (HbF-high/HbF-low sort, sgRNA deep sequencing)
Assay type: cell-based
Conditions: HbF enrichment; human library NGG and NGG RC sgRNAs filtered for enrichment score >0.259
Text: Every 20-mer sequence upstream of an NGG or NAG PAM sequence on the sense or anti-sense strand was identified for both the human and mouse orthologous +55, +58, and +62 DNase hypersensitive site (DHS) as well as BCL11A/BCL11a exon 2. Relative to the human hg 19 reference genome, a reference was used with the following substitutions to approximate a common low-HbF associated haplotype: rs1427407-G, rs1896293-T, rs6706648-T, rs6738440-G, rs7606173-C. Each of the sgRNA oligos were synthesized as previously described (37,41,64) and cloned using a Gibson Assembly master mix (New England Biolabs) into lentiGuide-Puro (Addgene plasmid ID 52963) BsmBI digested, PCR purified, and dephosphorylated. Gibson Assembly products were transformed to electrocompetent E. cloni cells (Lucigen). Sufficient colonies were isolated to ensure 90X library coverage for both human and mouse libraries. Plasmid libraries were deep sequenced (described below) to confirm representation.
Tiled Pooled CRISPR-Cas9 Screen for In Situ Functional Mapping the Human BCL11A Erythroid Enhancer.
HUDEP clone 2 (HUDEP-2) was utilized as previously described by from Nakamura and colleagues (49). HUDEP-2 cells were expanded in StemSpan SFEM (Stem Cell Technologies) supplemented with 10^−6 M dexamethasone (Sigma), 100 ng/mL human stem cell factor (SCF) (R&D), 3 IU/mL erythropoietin (Amgen), 1% L-glutamine (Life Technologies), and 2% penicillin/streptomycin (Life Technologies). 1 μg/mL doxycycline (Sigma) was included in the culture to induce expression of the human papilloma virus type 16 E6/E7 genes (49). HUDEP-2 cells were differentiated in Iscove's Modified Dulbecco's Medium (IMDM) supplemented with 330 μg/mL halo-transferrin (Sigma), 10 μg/mL recombinant human insulin (Sigma), 2 IU/mL heparin (Sigma), 5% human solvent detergent pooled plasma AB (Rhode Island Blood Center), 3 IU/mL erythropoietin (Amgen), 100 ng/mL human stem cell factor (SCF) (R&D), 1 μg/mL doxycycline (Sigma), 1% L-glutamine (Life Technologies), and 2% penicillin/streptomycin (Life Technologies).
HUDEP-2 cells with stable Cas9 expression were transduced at low multiplicity with the human sgRNA library lentivirus pool while in expansion medium. […] Cell numbers were maintained throughout the experiment at levels adequate to exceed 1000× representation of the library. 10 μg/mL blasticidin (Sigma) and 1 μg/mL puromycin (Sigma) were added 24 hours after transduction to select for lentiviral library integrants in cells with Cas9. Cells were cultured in expansion media for one week followed by differentiation media for an additional week.
Intracellular staining was performed by fixing cells with 0.05% glutaraldehyde (grade II) (Sigma) for 10 minutes at room temperature. Cells were centrifuged for 5 minutes at 350 g and then resuspended in 0.1% Triton-X100 (Life Technologies) for 5 minutes at room temperature for permeabilization. Triton X-100 was diluted with phosphate buffered saline (PBS) and then centrifuged at 350 g for 15 minutes. Cells were stained with anti-human antibodies for HbF (clone HbF-1 with FITC or APC conjugation; Life Technologies) and B-hemoglobin antibody (clone 37-8 with PerCP-Cy5 or PE conjugation; Santa Cruz) for 20 minutes in the dark. Cells were washed to remove unbound antibody prior to FACS analysis. 0.2 μg HbF and 2 μg of HbA CB-hemoglobin) antibodies were used per 5 million cells. Control cells exposed to a nontargeting sgRNA sample and BCL11A exon 2 were used as negative and positive controls respectively to establish flow cytometry conditions. Populations of cells with the top and bottom 10% of expression of HbF were sorted by FACS.
After sorting the HbF-high and HbF-low pools, library preparation and deep sequencing was performed as previously described (37). Briefly, genomic DNA was extracted using the Qiagen Blood and Tissue kit. […]

Substance | Enrichment Score
BCL_02001_H_exon2 (guide CCACAGCTTTTTCTAAGCAGNGGRC; listed as DNA, chemistry not given here) | 0.4913
BCL_01639_H_D58 (guide ATCGGTGGCCGTTTGCCCAGNGGRC; listed as DNA, chemistry not given here) | 0.8219
BCL_00255_H_exon2 (guide ATCATGACCTCCTCACCTGTNGG; listed as DNA, chemistry not given here) | 1.703
BCL_00108_H_D55 (guide TCTGAGGAGCTAGAGACTTGNGG; listed as DNA, chemistry not given here) | 0.3065
BCL_00160_H_D58 (guide TCAGGGGGAGGCAAGTCAGTNGG; listed as DNA, chemistry not given here) | 0.3294
BCL_01621_H_D58 (guide CACAGGCTCCAGGAAGGGTTNGGRC; listed as DNA, chemistry not given here) | 2.319
BCL_00130_H_D58 (guide GGAGTATGGGGAGAGAAGAGNGG; listed as DNA, chemistry not given here) | 0.3752
BCL_00254_H_exon2 (guide GATCATGACCTCCTCACCTGNGG; listed as DNA, chemistry not given here) | 2.198
BCL_02008_H_exon2 (guide AGGAGGTCATGATCCCCTTCNGGRC; listed as DNA, chemistry not given here) | 0.3495
BCL_01623_H_D58 (guide AAGGGTTTGGCCTCTGATTANGGRC; listed as DNA, chemistry not given here) | 1.285
BCL_00184_H_D58 (guide CCTGGGCAAACGGCCACCGANGG; listed as DNA, chemistry not given here) | 0.3155
BCL_01438_H_D55 (guide TACCAGGATGATGCAATGCTNGGRC; listed as DNA, chemistry not given here) | 0.9129
BCL_02000_H_exon2 (guide TCGATTGGTGAAGGGGAAGGNGGRC; listed as DNA, chemistry not given here) | 0.4624
BCL_00183_H_D58 (guide AAGAGGCCCCCCTGGGCAAANGG; listed as DNA, chemistry not given here) | 0.7853
BCL_00256_H_exon2 (guide GTGCCAGATGAACTTCCCATNGG; listed as DNA, chemistry not given here) | 1.89
BCL_01799_H_D62 (guide CTCAGGTGATCCTCCTGCCCNGGRC; listed as DNA, chemistry not given here) | 0.9108
BCL_01992_H_exon2 (guide GACCTGGATGCCAACCTCCANGGRC; listed as DNA, chemistry not given here) | 1.234

Substance | Enrichment Score
BCL_02004_H_exon2 (guide CCCCCAATGGGAAGTTCATCNGGRC; listed as DNA, chemistry not given here) | 0.4685
BCL_00062_H_D55 (guide AGCAGCCCTGGGCACAGAAGNGG; listed as DNA, chemistry not given here) | 0.3251
BCL_01626_H_D55 (guide TTTGGCCTCTGATTAGGGTGNGGRC; listed as DNA, chemistry not given here) | 1.336
BCL_01990_H_exon2 (guide GATAAACAATCGTCATCCTCNGGRC; listed as DNA, chemistry not given here) | 0.8422
BCL_00088_H_D55 (guide GCATCATCCTGGTACCAGGANGG; listed as DNA, chemistry not given here) | 0.4386
BCL_00064_H_D55 (guide TGCCAACAGTGATAACCAGCNGG; listed as DNA, chemistry not given here) | 0.5108
BCL_00012_H_D55 (guide AAGTGAGCCAGGTGATAGAANGG; listed as DNA, chemistry not given here) | 0.3511
BCL_02015_H_exon2 (guide AAGAATGGCTTCAAGAGGCT; chemistry not given here) | 1.064
BCL_00187_H_D58 (guide ATCAGAGGCCAAACCCTTCCNGG; listed as DNA, chemistry not given here) | 2.122
BCL_00154_H_D58 (guide AGGGAAAAGGGAGAGGAAAANGG; listed as DNA, chemistry not given here) | 0.4446
BCL_00185_H_D58 (guide GCAAACGGCCACCGATGGAGNGG; listed as DNA, chemistry not given here) | 0.3196
BCL_00093_H_D55 (guide TCCCTTCCTAGAATTGGCCTNGG; listed as DNA, chemistry not given here) | 0.5283
BCL_01790_H_D62 (guide TTGCCCGGGCTGGAATGCAANGGRC; listed as DNA, chemistry not given here) | 0.4673
BCL_01665_H_D58 (guide TGTAACTAATAAATACCAGGNGGRC; listed as DNA, chemistry not given here) | 0.4418
BCL_01800_H_D62 (guide GCCCCGGCCTCCCAAAGTGCNGGRC; listed as DNA, chemistry not given here) | 0.6113
BCL_02006_H_exon2 (guide TCTGGCACTGCCCACAGGTGNGGRC; listed as DNA, chemistry not given here) | 1.489

Same assay, conditions: human library sgRNAs that produced HbF enrichment over 0.259

Substance | Dropout Score
BCL_02001_H_exon2 (guide CCACAGCTTTTTCTAAGCAGNGGRC; listed as DNA, chemistry not given here) | −0.2495
BCL_01639_H_D58 (guide ATCGGTGGCCGTTTGCCCAGNGGRC; listed as DNA, chemistry not given here) | −0.8981
BCL_00255_H_exon2 (guide ATCATGACCTCCTCACCTGTNGG; listed as DNA, chemistry not given here) | −2.497
BCL_00108_H_D55 (guide TCTGAGGAGCTAGAGACTTGNGG; listed as DNA, chemistry not given here) | −0.6499
BCL_00160_H_D58 (guide TCAGGGGGAGGCAAGTCAGTNGG; listed as DNA, chemistry not given here) | −0.318
BCL_01621_H_D58 (guide CACAGGCTCCAGGAAGGGTTNGGRC; listed as DNA, chemistry not given here) | −0.6005
BCL_00130_H_D58 (guide GGAGTATGGGGAGAGAAGAGNGG; listed as DNA, chemistry not given here) | −2.212
BCL_00254_H_exon2 (guide GATCATGACCTCCTCACCTGNGG; listed as DNA, chemistry not given here) | −2.256
BCL_02008_H_exon2 (guide AGGAGGTCATGATCCCCTTCNGGRC; listed as DNA, chemistry not given here) | −0.4482
BCL_01623_H_D58 (guide AAGGGTTTGGCCTCTGATTANGGRC; listed as DNA, chemistry not given here) | −0.2669
BCL_00184_H_D58 (guide CCTGGGCAAACGGCCACCGANGG; listed as DNA, chemistry not given here) | −0.5414
BCL_01438_H_D55 (guide TACCAGGATGATGCAATGCTNGGRC; listed as DNA, chemistry not given here) | −0.4122
BCL_02000_H_exon2 (guide TCGATTGGTGAAGGGGAAGGNGGRC; listed as DNA, chemistry not given here) | −1.365
BCL_00183_H_D58 (guide AAGAGGCCCCCCTGGGCAAANGG; listed as DNA, chemistry not given here) | −0.5913
BCL_00256_H_exon2 (guide GTGCCAGATGAACTTCCCATNGG; listed as DNA, chemistry not given here) | −1.764
BCL_01799_H_D62 (guide CTCAGGTGATCCTCCTGCCCNGGRC; listed as DNA, chemistry not given here) | −9.478
BCL_01992_H_exon2 (guide GACCTGGATGCCAACCTCCANGGRC; listed as DNA, chemistry not given here) | −0.6955

Substance | Dropout Score
BCL_02004_H_exon2 (guide CCCCCAATGGGAAGTTCATCNGGRC; listed as DNA, chemistry not given here) | −0.1189
BCL_00062_H_D55 (guide AGCAGCCCTGGGCACAGAAGNGG; listed as DNA, chemistry not given here) | −0.6401
BCL_01626_H_D55 (guide TTTGGCCTCTGATTAGGGTGNGGRC; listed as DNA, chemistry not given here) | −0.2724
BCL_01990_H_exon2 (guide GATAAACAATCGTCATCCTCNGGRC; listed as DNA, chemistry not given here) | −0.6128
BCL_00088_H_D55 (guide GCATCATCCTGGTACCAGGANGG; listed as DNA, chemistry not given here) | −0.3713
BCL_00064_H_D55 (guide TGCCAACAGTGATAACCAGCNGG; listed as DNA, chemistry not given here) | −0.3581
BCL_00012_H_D55 (guide AAGTGAGCCAGGTGATAGAANGG; listed as DNA, chemistry not given here) | −0.01983
BCL_02015_H_exon2 (guide AAGAATGGCTTCAAGAGGCT; chemistry not given here) | −1.349
BCL_00187_H_D58 (guide ATCAGAGGCCAAACCCTTCCNGG; listed as DNA, chemistry not given here) | −0.7444
BCL_00154_H_D58 (guide AGGGAAAAGGGAGAGGAAAANGG; listed as DNA, chemistry not given here) | −0.3992
BCL_00185_H_D58 (guide GCAAACGGCCACCGATGGAGNGG; listed as DNA, chemistry not given here) | −0.516
BCL_00093_H_D55 (guide TCCCTTCCTAGAATTGGCCTNGG; listed as DNA, chemistry not given here) | −0.5616
BCL_01790_H_D62 (guide TTGCCCGGGCTGGAATGCAANGGRC; listed as DNA, chemistry not given here) | −8.123
BCL_01665_H_D58 (guide TGTAACTAATAAATACCAGGNGGRC; listed as DNA, chemistry not given here) | −0.6516
BCL_01800_H_D62 (guide GCCCCGGCCTCCCAAAGTGCNGGRC; listed as DNA, chemistry not given here) | −7.65
BCL_02006_H_exon2 (guide TCTGGCACTGCCCACAGGTGNGGRC; listed as DNA, chemistry not given here) | −2.029

Source: patent publication US12497610B2, “Functional genomics using CRISPR-CAS systems for saturating mutagenesis of non-coding elements, compositions, methods, libraries and applications thereof” (THE BROAD INSTITUTE, INC., priority 2015, dated 2025)
